Assay results published in patent EP0288647B1, “Derivatives of 5-[2-(1-pyrrolidinyl)ethoxy]-p-cymene, process for their preparation, and medicaments containing these derivatives” (INSTITUT DE RECHERCHES CHIMIQUES ET BIOLOGIQUES APPLIQUEES …, priority 1987, dated 1988).

How the values were obtained:
[1] = test system: pressions artérielle et urétrale; assay: In vivo α-blocking activity at urethral and vascular level: noradrenaline-induced rise of arterial and urethral pressure in the anaesthetised rabbit; set-up: species or system lapin; conditions: product i.v.
Excerpt: L'activité α-bloquante "in vivo" aux niveaux urétral et vasculaire chez le lapin anesthésié a été recherchée par administration intraveineuse des produits B 1007, B 1024, B 1058, B 1125 et B 1134.
L'injection intraveineuse de noradrénaline provoque chez le lapin une augmentation dose dépendante des pressions artérielle et urétrale. Les substances α-bloquantes injectées par voie intraveineuse antagonisent en fonction des doses ces augmentations de pression. On calcule la dose inhibitrice 50 % (D.I. 50) définie comme étant la dose de produit provoquant une diminution de 50 % des effets de la noradrénaline sur les pressions artérielle et urétrale.

[2] = test system: hyperpression urétrale neurogène et pression artérielle; assay: Urethral specificity in the anaesthetised dog: neurogenic urethral hyperpressure (hypogastric nerve stimulation) and arterial pressure; type: in vivo, chien; conditions: product i.v.; for Hypotension artérielle DE. 20: dose causing 20 % arterial hypotension; for Hyperpression urétrale neurogène DI. 50: electrical stimulation of the hypogastric nerve
Excerpt: L'effet des produits B 1007, B 1024, B 1125 et B 1134, injectés par voie intraveineuse sur l'hyperpression urétrale neurogène et sur la pression artérielle, a été recherché chez le chien anesthésié.
La stimulation électrique du nerf hypogastrique provoque une augmentation de la pression urétrale par libération de noradrénaline à partir des fibres sympathiques du nerf.
Les substances α-bloquantes antagonisent en fonction des doses ces augmentations de pression urétrale et provoquent une hypotension artérielle par action bloquante au niveau des récepteurs vasculaires.
On calcule la dose qui inhibe de 50 % (DI. 50) les effets de la stimulation du nerf hypogastrique sur la pression urétrale et la dose qui provoque une hypotension artérielle de 20 % (DE. 20).

[3] = test system: toxicité de la noradrénaline; assay: In vivo adrenolytic activity: protection against death caused by i.v. noradrenaline; conditions: rat, 30 min before noradrenaline 0,4 mg/kg⁻¹ I.V.
Method: La noradrénaline injectée à fortes doses par voie intraveineuse provoque la mort de 100 % des animaux dans les 15 minutes qui suivent son injection. La mort survient par oedème pulmonaire dû à l'hypertension artérielle induite par la stimulation des récepteurs adrénergiques. L'administration préalable de substances α-adrénolytiques par voie orale permet de réduire la toxicité de la noradrénaline. Les produits sont administrés par voie orale à des temps variables entre 30 minutes et 6 heures avant l'injection intraveineuse (I.V.) de noradrénaline (0,4 mg/kg⁻¹).

urètre isolé du lapin = assay: In vitro α-adrenolytic activity: antagonism of noradrenaline contractions of isolated rabbit urethra; type: cell-based
Excerpt: (§1) Elle a été étudiée sur le canal déférent du rat et sur l'urètre du lapin.
(§2) La noradrénaline provoque des contractions du canal déférent isolé du rat et de l'urètre isolé du lapin. La présence dans le bain de l'organe de substances α-bloquantes antagonise ces contractions : l'utilisation de concentrations croissantes de substances α-bloquantes permet de calculer : • la pA₂ des composés sur le canal déférent du rat; la pA₂ étant le logarithme changé de signe de la concentration molaire du produit en présence de laquelle il faut multiplier par deux la concentration de noradrénaline pour obtenir le même effet qu'en l'absence du produit; • la pD'₂ des composés sur l'urètre du lapin; la pd'₂ étant le logarithme changé de signe de la concentration molaire du produit en présence de laquelle l'activité contracturante de la noradrénaline est divisée par deux.

[4] = test system: canal déférent isolé du rat; assay: In vitro α-adrenolytic activity: antagonism of noradrenaline contractions of isolated rat vas deferens; type: cell-based
Excerpt: as §1, §2

[5] = Acute toxicity, lethal dose 50 after oral and intravenous administration; type: in vivo, souris; conditions: mouse; for DL 50 I.V.: intravenous administration; for DL 50 P.O.: oral administration
Excerpt: Les doses létales 50 suivantes ont été obtenues après administration orale (P.O.) et intraveineuse (I.V.) des substances chez la souris.
Les résultats obtenus sont consignés dans le tableau I. TABLEAU I

| SMILES | D.I. 50 vis-à-vis de l'hypertension artérielle [1] | D.I. 50 vis-à-vis de l'hypertension urétrale [1] | Hypotension artérielle DE. 20 [2] | Hyperpression urétrale neurogène DI. 50 [2] | % de protection contre la mort ([3]; 50 mg/kg⁻¹ p.o.) | Action α-bloquante vis-à-vis de la noradrénaline sur urètre isolé pD'₂ (urètre isolé du lapin) | Action α-bloquante vis-à-vis de la noradrénaline sur canal déférent isolé pA₂ [4] | DL 50 I.V. [5] | DL 50 P.O. [5] | % de protection contre la mort ([3]; 25 mg/kg⁻¹ p.o.) |
| --- | --- | --- | --- | --- | --- | --- | --- | --- | --- | --- |
| Cc1ccc(C(C)C)c(OCCN2CCCC2)c1.Cl [B 1007, chlorhydrate du [(pyrrolidinyl-1)-2-éthoxy]-3 p-cymène] | 7,63 mg/kg⁻¹ | 0,34 mg/kg⁻¹ | 2 mg/kg⁻¹ | 0,35 mg/kg⁻¹ | 60% | 6,88 | 6,74 | 75 mg/kg⁻¹ | 330 mg/kg⁻¹ | – |
| CC(=O)Oc1cc(C(C)C)c(OCCN2CCCC2)cc1C.Cl [B 1024, chlorhydratede l'acétoxy-2[(pyrrolidinyl-1)-2-éthoxy]-5 p-cymène] | 4,14 mg/kg⁻¹ | 0,23 mg/kg⁻¹ | 8 mg/kg⁻¹ | 0,07 mg/kg⁻¹ | – | 6,38 | 6,98 | 18 mg/kg⁻¹ | 100 mg/kg⁻¹ | 70% |
| Cc1cc(OCCN2CCCC2)c(C(C)C)cc1O.Cl [B 1058, chlorhydratede l'hydroxy-2[(pyrrolidinyl-1)-2-éthoxy]-5 p-cymène] | 1,22 mg/kg⁻¹ | 0,13 mg/kg⁻¹ | – | – | 90% | 6,69 | 7,18 | 17 mg/kg⁻¹ | 80 mg/kg⁻¹ | – |
| CCCC(=O)Oc1cc(C(C)C)c(OCCN2CCCC2)cc1C.Cl [B 1132, chlorhydrate du butyryloxy-2[(pyrrolidinyl1)-2-éthoxy]-5 p-cymène] | – | – | – | – | 90% | 6,0 | 7,35 | – | ≃ 500 mg/kg⁻¹ | – |
| CC(=O)Oc1cc(C(C)C)c(OCCN(C)C)cc1C [Thymoxamine, reference compound] | 2,72 mg/kg⁻¹ | 0,5 mg/kg⁻¹ | 0,27 mg/kg⁻¹ | 0,09 mg/kg⁻¹ | 80% | 7,03 | 7,25 | 72,5 mg/kg⁻¹ | 300 mg/kg⁻¹ | – |
